Source: patent US20040067923A1, “Use of biogenic estriol sulfamate prodrugs for treatment of autoimmune diseases” (priority 2002, published 2004)

What was measured:
[1] = test system: ovariectomised Wistar rats; settings: 28 days
Method: Adult Wistar rats (6 months old) were ovariectomised and orally treated with estriol-3-O-sulfamate, reference compound and vehicle, respectively. Effects on bone mineral density after 28 days of treatment were determined.

[2] = test system: ovariectomised Wistar rats
Method: Adult Wistar rats (6 months old) were ovariectomised and orally treated with estriol-3-O-sulfamate, reference compound and vehicle, respectively. Effects of treatment on uterine weight after 28 days of treatment were determined.

[3] = Heithecker et al., 1991; cited from earlier work
[4] = Head et al., 1998; cited from earlier work
[5] = 12 mg/day, Lindsay et al., 1979; cited from earlier work
[6] = ovariectomised Wistar rats, 28 days

Row | Structure (SMILES) | oral dose at which the loss in bone mineral density could be nearly restored [1] [μg/animal/day] | systemic estrogen activity after oral application compared with estriol ([2]; conclusion based on Examples 1, 2 and 3) | oral dose to increase the uterine weight to basal level [2, 6] [μg/animal/day] | potency relative to estriol administered orally, uterine weight test ([2]; ovariectomised Wistar rats, oral) | uterine weight dose relative to dose showing osteoprotective effects (tissue selectivity) ([2]; ovariectomised Wistar rats, oral, 28 days) | half-life [3] [h] | oral amount needed to achieve comparable serum levels of estriol as after intravaginal application [4] | osteoprotective effects after oral administration [5] | bone sparing effect at doses used for oral application of estriol-3-sulfamate [1]
1 | C[C@]12CC[C@@H]3c4ccc(OS(N)(=O)=O)cc4CC[C@H]3[C@@H]1C[C@@H](O)[C@@H]2O [estriol-3-sulfamate] | 10 | much higher systemic estrogen activity | 100 | about 3 fold | ten times more |  |  |  | 
2 | C[C@]12CC[C@@H]3c4ccc(O)cc4CC[C@H]3[C@@H]1C[C@@H](O)[C@@H]2O [estriol] |  |  | 300 |  |  | 1.5 to 5.3 | ten times more | not able to show the osteoprotective effects | no bone sparing effect
